The values below come from ChEMBL document CHEMBL1201862, “PubChem BioAssay data set” (2004).

Structures are written as SMILES.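 Five compound concentrations were applied to cells in 96-well plates for 48 hours; endpoints were derived by simple linear interpolation of the resulting dose-response curve. GI50 = concentration required for 50% inhibition of growth.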 Calls of active or inactive are those of the source. Cut-off read from the data, not from the text of the source: active = GI50 up to about 1.1 µM and inactive = higher.

Some test systems named below: HCC 2998; HCT-15; IGROV-1; K562; NCI-H226; NCI-H23; NCI-H522; OVCAR-3; RXF 393; SF-295; SK-MEL-5; SK-OV-3; SNB-19; SR; SW-620; UACC-257; T47D; DU-145; MCF7; Hs-578T.
Holding throughout (experiment): NCI-60 cell line screen, 48 h

In the case of `CCCCCCCCCC(=O)N[C@H]1CCc2cc(OC)c(OC)c(OC)c2-c2ccc(SC)c(=O)cc21`, the GI50 with HCC 2998 was 0.0247 µM (active); in the assay on HCT-15, 0.0313 µM; with IGROV-1, 0.0387 µM (active); in the assay with K562, 0.0395 µM (active); in the assay on NCI-H226 it was 0.0231 µM (active); with NCI-H23, 0.0216 µM (active). For the same compound, the GI50 with NCI-H522 is < 0.01 µM (active); in the assay on OVCAR-3, 0.0226 µM (active); in the assay on RXF 393 it was 0.0224 µM (active); in the assay with SF-295 it was 0.0274 µM (active); with SK-MEL-5, 0.024 µM (active); in the assay on SK-OV-3 it was 0.0238 µM (active). Moreover, the GI50 with SNB-19 was 0.0329 µM (active); in the assay with SR, 0.0328 µM (active); in the assay with SW-620, 0.0316 µM (active); in the assay on UACC-257 it was 0.0417 µM (active).
Take `O=CCC1CCCCC1`: the GI50 with HCT-15 is above 100 µM; in the assay on IGROV-1, > 100 µM (inactive); in the assay on K562, > 100 µM (inactive); with NCI-H226, > 100 µM (inactive); in the assay on NCI-H23, > 100 µM (inactive); in the assay on NCI-H522 it was > 100 µM (inactive). The GI50 in the assay with OVCAR-3, with RXF 393, in the assay on SF-295, with SK-MEL-5, in the assay with SK-OV-3 and in the assay on SNB-19 was > 100 µM (inactive) throughout. The GI50 in the assay on SW-620, with T47D and in the assay on UACC-257 was > 100 µM (inactive) each time.
Turning to `Cc1ccc(/C=C/C(=N/NC(=O)N/N=C(/C=C/c2ccc(C)cc2)C(C)C)C(C)C)cc1`, the GI50 in the assay with DU-145 is > 10 µM (inactive); in the assay on HCC 2998, > 10 µM (inactive); in the assay on HCT-15, above 10 µM; in the assay on K562, > 10 µM (inactive); in the assay on MCF7, > 10 µM (inactive); with NCI-H226, > 10 µM (inactive). For the same compound, the GI50 with NCI-H23 was > 10 µM (inactive); with NCI-H522, 9.12 µM (inactive); with OVCAR-3, 3.93 µM (inactive); with RXF 393 it was > 10 µM (inactive); in the assay on SF-295, > 10 µM (inactive); in the assay on SNB-19, > 10 µM (inactive). In addition, the GI50 with SR, in the assay with SW-620 and in the assay on UACC-257 was > 10 µM (inactive) throughout.
For the compound `COc1cccc(NC(=O)c2c(SC)c(C#N)c(=O)n(N)c2N)c1`, the GI50 in the assay on HCC 2998 is > 100 µM (inactive); with HCT-15, 66.2 µM; in the assay with Hs-578T, 41.1 µM (inactive); in the assay with IGROV-1, > 100 µM (inactive); in the assay with K562 it was 45.9 µM (inactive); with MCF7, > 100 µM (inactive). Further, the GI50 in the assay on NCI-H226 was > 100 µM (inactive); with NCI-H522, 42.3 µM (inactive); in the assay on RXF 393, > 100 µM (inactive); with SF-295, 34.2 µM (inactive); with SK-MEL-5 it was 64.9 µM (inactive); in the assay on SK-OV-3, 44.5 µM (inactive). Besides, the GI50 in the assay with SNB-19 is 4.52 µM (inactive); with SW-620, 51.2 µM (inactive); with UACC-257 it was > 100 µM (inactive).
Regarding `O=C(CN1CCN(c2ccccc2)CC1)N1CCc2c([nH]c3ccccc23)C1c1cccnc1` (stereo unspecified), the GI50 with HCC 2998 is > 87.9 µM (inactive); with HCT-15 it was 57.3 µM; in the assay on IGROV-1, > 100 µM (inactive); in the assay with K562, > 76.4 µM (inactive); in the assay with NCI-H226, > 100 µM (inactive); with NCI-H23, 30.5 µM (inactive). Further, the GI50 is 29.3 µM (inactive) in the assay on NCI-H522; 64.9 µM (inactive) in the assay with OVCAR-3; 9.68 µM (inactive) in the assay on RXF 393; 23.7 µM (inactive) in the assay with SF-295; 51.3 µM (inactive) in the assay on SK-MEL-5; 25.8 µM (inactive) with SK-OV-3. Also, the GI50 is 38.2 µM (inactive) in the assay on SNB-19, > 100 µM (inactive) in the assay with SR, > 66.8 µM (inactive) in the assay with SW-620 and > 100 µM (inactive) in the assay with UACC-257.
Turning to `CNC(=O)CCNC(=O)CCC(=O)OC`, the GI50 in the assay on DU-145, in the assay on K562, with MCF7, in the assay with NCI-H23, in the assay with OVCAR-3 and with RXF 393 was > 100 µM (inactive) in each case. The GI50 with SF-295, in the assay with SK-MEL-5, in the assay on SK-OV-3, in the assay with SNB-19, in the assay on SW-620 and in the assay on T47D was > 100 µM (inactive) each time.
For `O=C(NNc1cn[nH]c(=O)c1Cl)/C(=C/c1ccc2c(c1)OCO2)NC(=O)c1ccccc1`, the GI50 is 92 µM (inactive) in the assay with DU-145; 41.3 µM (inactive) in the assay with HCC 2998; 31.7 µM with HCT-15; 23.6 µM (inactive) with IGROV-1; 41.5 µM (inactive) in the assay on MCF7; 21.9 µM (inactive) in the assay on NCI-H226. Besides, the GI50 was 42.5 µM (inactive) with NCI-H23; 71.3 µM (inactive) in the assay with OVCAR-3; 71.3 µM (inactive) with SF-295; 40.8 µM (inactive) with SK-MEL-5; > 100 µM (inactive) with SK-OV-3; 76.2 µM (inactive) with SNB-19. For the same compound, the GI50 was 41.2 µM (inactive) in the assay with SW-620, 73.5 µM (inactive) in the assay on T47D and > 100 µM (inactive) in the assay on UACC-257.
As to `CCCCCCCCCCSS(=O)(=O)c1ccc(C)cc1`, the GI50 in the assay on HCC 2998 is 17.5 µM (inactive); in the assay with HCT-15, 13 µM; in the assay with IGROV-1 it was 15.1 µM (inactive); in the assay with K562 it was 12.1 µM (inactive); with NCI-H226, 19 µM (inactive); in the assay on NCI-H23, 17.3 µM (inactive). Also, the GI50 with NCI-H522 was 6.4 µM (inactive); in the assay with OVCAR-3, 18.6 µM (inactive); with RXF 393, 15.8 µM (inactive); in the assay with SF-295 it was 6.58 µM (inactive); with SK-MEL-5 it was 5.36 µM (inactive); in the assay on SK-OV-3, 22.3 µM (inactive). Moreover, the GI50 is 10.5 µM (inactive) with SNB-19, 3.6 µM (inactive) in the assay on SR, 14.3 µM (inactive) with SW-620 and 8.28 µM (inactive) in the assay on UACC-257.
For the compound `OC1[C@H]([C@H]2CCCC[C@@H]2O)CCC[C@@H]1[C@@H]1CCCC[C@H]1O` (stereo partly specified), the GI50 was > 100 µM (inactive) in the assay with HCC 2998; above 100 µM in the assay with HCT-15; > 100 µM (inactive) with IGROV-1; > 100 µM (inactive) in the assay on K562; > 100 µM (inactive) with NCI-H226; > 100 µM (inactive) with NCI-H23. Besides, the GI50 in the assay on NCI-H522, in the assay on OVCAR-3, in the assay with RXF 393, in the assay on SF-295, with SK-MEL-5 and in the assay with SK-OV-3 was > 100 µM (inactive) each time. The GI50 in the assay with SNB-19, in the assay with SR, in the assay on SW-620 and with UACC-257 was > 100 µM (inactive) in each case.
With `N#Cc1cc([N+](=O)[O-])ccc1NC(=O)C(=O)Nn1c(S)nc2ccccc2c1=O`, the GI50 in the assay on HCC 2998 is > 100 µM (inactive); in the assay on HCT-15 it was above 100 µM; with IGROV-1, > 100 µM (inactive); in the assay on K562 it was > 100 µM (inactive); with NCI-H226 it was > 100 µM (inactive); with NCI-H23 it was > 100 µM (inactive). The GI50 with NCI-H522, with OVCAR-3, with RXF 393, in the assay with SF-295, in the assay on SK-MEL-5 and with SK-OV-3 was > 100 µM (inactive) each time. Further, the GI50 in the assay with SNB-19, with SR, in the assay on SW-620 and in the assay on UACC-257 was > 100 µM (inactive) each time.
Regarding `CC(=O)/C(=N\O)C(=O)NCc1ccccc1`, the GI50 is > 100 µM (inactive) in the assay with HCC 2998; 35.9 µM in the assay with HCT-15; > 100 µM (inactive) in the assay on IGROV-1; 36.4 µM (inactive) with K562; > 100 µM (inactive) in the assay with NCI-H226; > 100 µM (inactive) with NCI-H23. The GI50 in the assay with NCI-H522, in the assay on OVCAR-3, with RXF 393, in the assay on SF-295, with SK-MEL-5 and in the assay on SK-OV-3 was > 100 µM (inactive) in each case. Besides, the GI50 is > 100 µM (inactive) in the assay on SNB-19, > 100 µM (inactive) with SR, 15.9 µM (inactive) with SW-620 and > 100 µM (inactive) with UACC-257.
On to `O=C(O)Cn1nnc2c(=O)[nH][nH]c(=O)c21`, for which the GI50 is > 100 µM (inactive) with DU-145; > 100 µM (inactive) with HCC 2998; above 100 µM in the assay with HCT-15; > 10 µM (inactive) in the assay on K562; > 100 µM (inactive) in the assay with MCF7; > 100 µM (inactive) in the assay with NCI-H23. For the same compound, the GI50 with OVCAR-3, in the assay with SF-295, with SK-MEL-5, in the assay with SNB-19, in the assay with SR and in the assay with UACC-257 was > 100 µM (inactive) throughout.
Turning to `NNC(=O)C(=O)N/N=C1/CCCC1C(=O)CCC(=O)Nc1ccc(Cl)cc1` (stereo unspecified), the GI50 in the assay on HCC 2998 was > 100 µM (inactive); with HCT-15 it was 12.2 µM; with IGROV-1, > 100 µM (inactive); in the assay on K562, 12.1 µM (inactive); in the assay on NCI-H226 it was > 100 µM (inactive); in the assay with NCI-H23, > 100 µM (inactive). The GI50 with NCI-H522, with OVCAR-3, with RXF 393, in the assay with SF-295, in the assay with SK-MEL-5 and in the assay on SK-OV-3 was > 100 µM (inactive) throughout. Besides, the GI50 in the assay with SNB-19, in the assay with SR, in the assay with SW-620 and with UACC-257 was > 100 µM (inactive) each time.
